Test [1] can be described thus: Diuretic action (urine output for 5 hours after physiological saline loading in rats). It counts as in vivo, male Wistar rats. Conditions: for ED (200% urine output) / ED (500% urine output): Rattus norvegicus, sc, 5 hours after saline 20 ml/kg p.o.; for ED (200% urine output): dose giving urine output of 200 (non-dosed group = 100); for ED (500% urine output): dose giving urine output of 500 (non-dosed group = 100); for Diuretic action (in words): s.c., from ED200 values. The method, boiled down:
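Doses reported as ED200/ED500, i.e. those raising 5 h urine output to 200 or 500 versus undosed rats set at 100. Subcutaneous dosing preceded an oral 20 ml/kg saline load by 30 min; male Wistar rats, 7-8 weeks, deprived of water 1 h beforehand.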

In test [2] the target is T1, δ receptor (Mus musculus, UniProt P32300).
T1 construct: The vas deferens extracted from the animal was suspended in a Magnus tube; from tissue; host or cells: mouse (male ddy) vas deferens
Further details: species or system male ddy mouse. Particulars: mouse vas deferens, δ, NTI added.

Test [3] concerns the target T2, μ receptor (Mus musculus, UniProt P42866).
T2 construct: naloxone as mu antagonist (printed 'agonist')
Put plainly: Opioid activity test using an extracted mouse vas deferens preparation, Ke with naloxone. Further details: species or system male ddy mouse. Particulars: naloxone added. The protocol: (§1) A male ddy mouse was used in this test. The vas deferens extracted from the animal was suspended in a Magnus tube filled with Krebes-Henseleit solution (NaCl 118 mM; KCl 4.7 mM; CaCl2 2.5 mM; KH2 PO4 1.1 mM; NaHCO3 25 mM; Glucose 11 mM) warmed to 37° C. and ventilated with 5% carbon dioxide and 95% oxygen. Electrical stimulus was performed at 0.1 Hz for 5.0 ms by means of ring-shaped platinum electrodes located above and below. Tissue contractions were recorded on a polygraph using an isometric transducer.
(§2) After adequately washing with nutrient solution and the contraction reaction stabilized, the μ agonist, naloxone, the δ agonist, NTI, or the κ agonist, norBNI, was added after which the test compound was again cumulatively added after roughly 20 minutes. The Ke value was calculated using the following calculation formula from the difference in the efficacies of both agonists.
(§3) Ke=[Conc. of added agonist]/(IC50 ratio-1)
(§4) IC50 ratio=IC50 in the presence of agonist/IC50 in the absence of agonist

Test [4] has as its system extracted mouse vas deferens preparation. Description: Opioid activity test using an extracted mouse vas deferens preparation (suppression of electrically induced contractions). Further details: species or system male ddy mouse. Particulars: electrical stimulus 0.1 Hz, 37° C. The protocol:
as §1, §2

Test [5] deals with acetic acid-induced writhing in ddy mice. Description: animal or person. Format: in vivo, 5 week old ddy mice. Particulars: for ED50: s.c. 15 minutes before acetic acid. As to the method: 5 week old ddy mice were used in this test. After intraperitoneal administration of 0.1 ml of 0.6% aqueous acetic acid per 10 g of body weight, the number of writhing reactions that occurred in 10 minutes starting 10 minutes after administration was evaluated for the indicator. The test drug was administered subcutaneously into the backs of the animals 15 minutes before administration of acetic acid.

The target of test [6] is T3, κ receptor (Mus musculus, UniProt P33534).
T3 construct: from tissue; host or cells: mouse (male ddy) vas deferens
Description: Opioid activity test using an extracted mouse vas deferens preparation, Ke with norBNI. Conditions: for receptor selectivity of agonist (κ): in words; for Ke, norBNI: κ, norBNI added. More on the design: species or system male ddy mouse. As to the method: as §1, §2, §3, §4

The mark [7] stands for this setting: Mus musculus, sc, read-out: ED50.

Here are results for five compounds from patent publication US6177438A, “Morphinan derivatives and pharmaceutical use thereof” (priority 1993, dated 2001).

Structures are written as SMILES. Where a name gives a salt, the structure may show the parent alone. Read-outs that look alike come from different tables or passages of the source.

T1 sequence (P32300 whole entry): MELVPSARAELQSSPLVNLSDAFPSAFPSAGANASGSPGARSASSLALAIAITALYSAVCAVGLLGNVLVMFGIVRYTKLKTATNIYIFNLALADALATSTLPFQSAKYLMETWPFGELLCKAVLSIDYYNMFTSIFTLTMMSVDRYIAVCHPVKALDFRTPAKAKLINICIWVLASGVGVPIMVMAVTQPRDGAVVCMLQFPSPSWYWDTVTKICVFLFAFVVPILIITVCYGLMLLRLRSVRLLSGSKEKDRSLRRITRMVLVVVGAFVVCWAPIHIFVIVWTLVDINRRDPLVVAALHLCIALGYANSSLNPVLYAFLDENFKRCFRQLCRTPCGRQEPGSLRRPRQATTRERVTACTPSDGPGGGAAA
T3 sequence (P33534 whole entry): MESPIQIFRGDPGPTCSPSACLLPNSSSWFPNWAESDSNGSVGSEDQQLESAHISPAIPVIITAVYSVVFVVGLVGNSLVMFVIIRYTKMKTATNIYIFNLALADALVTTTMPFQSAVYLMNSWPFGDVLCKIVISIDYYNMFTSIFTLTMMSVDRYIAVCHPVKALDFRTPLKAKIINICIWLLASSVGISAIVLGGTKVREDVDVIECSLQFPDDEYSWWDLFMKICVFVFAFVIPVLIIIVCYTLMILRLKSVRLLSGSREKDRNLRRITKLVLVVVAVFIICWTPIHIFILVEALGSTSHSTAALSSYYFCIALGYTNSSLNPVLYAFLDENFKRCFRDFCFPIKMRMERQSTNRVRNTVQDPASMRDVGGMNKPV
T2 sequence (P42866 whole entry): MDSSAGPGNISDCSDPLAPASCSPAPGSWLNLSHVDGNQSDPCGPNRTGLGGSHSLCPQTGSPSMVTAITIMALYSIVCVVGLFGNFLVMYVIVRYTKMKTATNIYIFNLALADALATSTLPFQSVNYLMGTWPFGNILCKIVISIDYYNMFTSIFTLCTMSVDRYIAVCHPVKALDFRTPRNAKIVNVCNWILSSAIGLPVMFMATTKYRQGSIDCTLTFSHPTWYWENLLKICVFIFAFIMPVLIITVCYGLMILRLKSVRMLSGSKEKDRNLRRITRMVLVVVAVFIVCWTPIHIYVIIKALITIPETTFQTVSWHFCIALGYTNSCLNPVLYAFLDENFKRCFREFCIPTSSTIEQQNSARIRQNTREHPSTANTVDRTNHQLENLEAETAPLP

As for `CN(C(=O)CCc1ccccc1)[C@H]1CC[C@@]2(O)[C@H]3Cc4ccc(O)c5c4[C@@]2(CCN3CC2CC2)[C@H]1O5` [Compound 22, 17-Cyclopropylmethyl-4,5α-epoxy-3,14β-dihydroxy-6α-(N-methyl-3-phenylpropionamido)morphinan.cndot.tartrate], in test [1], the ED (200% urine output) is 0.95 µg/kg, the ED (500% urine output) was 17 µg/kg and the “Diuretic action (in words)” value is on record as “extremely strong diuretic action”. Further, the “Ke, NTI” value in test [2] was determined as 545 nM. For the same compound, the “Ke, Naloxone” value in test [3] is 800 nM. Moreover, it took 1200 pM to reach half-maximal inhibition in test [4] (IC50). Besides, the ED50 (in general, the dose that gives a 50% effect, or the effect in half of the subjects) in test [5] (setting [7]) turned out to be 5.1 µg/kg. Further, in test [6], the “receptor selectivity of agonist (κ)” value is given as “selective agonists for κ receptors” and the “Ke, norBNI” value is recorded as 5.53 nM.
In test [1], `CN(C(=O)COc1ccccc1)[C@H]1CC[C@@]2(O)[C@H]3Cc4ccc(O)c5c4[C@@]2(CCN3CC2CC2)[C@H]1O5` [Compound 38, 17-cyclopropylmethyl-3,14β-dihydroxy-4,5α-epoxy-6α-(N-methylphenoxyacetamido)morphinan.cndot.hydrochloride] registered an ED (200% urine output) of 3.8 µg/kg and an ED (500% urine output) of 281 µg/kg. Moreover, the “Ke, NTI” value in test [2] is recorded as 16.6 nM. For the same compound, the “Ke, Naloxone” value in test [3] turned out to be 411 nM. Moreover, the IC50 (usually the midpoint of a concentration-inhibition curve) in test [4] was 349 pM. Moreover, the ED50 in test [5] (setting [7]) amounted to 3.52 µg/kg. For the same compound, in test [6], the “receptor selectivity of agonist (κ)” value is “selective agonists for κ receptors” and the “Ke, norBNI” value came to 4.65 nM.
In test [1], `CCCCCC(=O)N(C)[C@H]1CC[C@@]2(O)[C@H]3Cc4ccc(O)c5c4[C@@]2(CCN3CC2CC2)[C@H]1O5` [Compound 39, 17-cyclopropylmethyl-3,14β-dihydroxy-4,5α-epoxy-6α-(N-methylhexanamido)morphinan.cndot.tartrate] returned an ED (200% urine output) of 4.1 µg/kg and an ED (500% urine output) of 228 µg/kg. In addition, in test [2], the “Ke, NTI” value was determined as 99.3 nM. Further, in test [3], the “Ke, Naloxone” value came out at 89.9 nM. In test [4], this compound gave an IC50 of 568 pM. For the same compound, the ED50 in test [5] (setting [7]) was 8.8 µg/kg. Moreover, in test [6], the “receptor selectivity of agonist (κ)” value is reported as “selective agonists for κ receptors” and the “Ke, norBNI” value is 1.01 nM.
As for `CN(C(=O)OCc1ccccc1)[C@H]1CC[C@@]2(O)[C@H]3Cc4ccc(O)c5c4[C@@]2(CCN3CC2CC2)[C@H]1O5` [Compound 42, 17-cyclopropylmethyl-3,14β-dihydroxy-4,5α-epoxy-6α-(N-methylbenzyloxycarbamido)morphinan.cndot.tartrate], in test [1], the ED (200% urine output) was determined as 0.85 µg/kg, the ED (500% urine output) is 6.1 µg/kg and the “Diuretic action (in words)” value was “extremely strong diuretic action”. In addition, the “Ke, NTI” value in test [2] was found to be 63.5 nM. For the same compound, in test [3], the “Ke, Naloxone” value came to 186 nM. Moreover, in test [4], the midpoint of inhibition, the IC50, lay at 251 pM. The ED50 in test [5] (setting [7]) amounted to 1.36 µg/kg. Besides, the analgesic activity result in test [5] (s.c., in words) is “particularly strong analgesic activity”. In test [6], the “receptor selectivity of agonist (κ)” value is recorded as “selective agonists for κ receptors” and the “Ke, norBNI” value is 0.905 nM.
Regarding `CC(=O)Oc1ccc2c3c1O[C@H]1[C@H](N(C)C(=O)/C=C/c4ccccc4)CC[C@@]4(O)[C@@H](C2)N(CC2CC2)CC[C@]314` [Compound 140, 17-Cyclopropylmethyl-3-acetoxy-14β-hydroxy-4,5α-epoxy-6β-(N-methylcinnamamido)morphinan.cndot.tartrate], the “Ke, NTI” value in test [2] turned out to be 261 nM. Also, the “Ke, Naloxone” value in test [3] was 320 nM. Also, in test [4], the IC50 is 413 pM. The ED50 in test [5] is 3.4 µg/kg. In addition, in test [6], the “receptor selectivity of agonist (κ)” value is “selective agonists for κ receptors” and the “Ke, norBNI” value amounted to 1.06 nM.
